Reference: patent US20240148962A1, “INTRAVENOUS DELIVERY OF LARGE VOLUMES OF GAS WITH HIGHLY PRESSURIZED SUPERSATURATED SOLUTION” (Regents of the University of Minnesota, priority 2021, published 2024)

Experiments:
[1] = Oxygen content dissolved in saline under different pressure and temperature, with and without nanobubbles; format: physicochemical; conditions: FIG. 4A; 5° C. and 5 atm
Source text: Nanobubbles (triangles) are compared to control and macrobubbles (dots).

[2] = 1 atm, room temperature; cited from earlier work

O=O [oxygen]
oxygen content in saline without nanobubbles [1]: 200 ml of oxygen per L of saline | content of oxygen, previously published evidence [2]: 43 ml/liter
